SMILES strings stand for the structures.

These results are taken from US9216999B2, “Substituted pyrrolo[2,3-h][1,6]naphthyridines and compositions thereof as JAK inhibitors” (priority 2011, dated 2015).

The target in test [1] is T1, JAK1 (Homo sapiens (Human), UniProt P23458). Nature of the test: JAK1 enzyme assay (Assay Example^b 1).
The target of test [2] is T2, JAK3 (Homo sapiens (Human), UniProt P52333). Nature of the test: JAK3 enzyme assay (Assay Example^b 1).
Test [3] addresses T3, Tyk2 (Homo sapiens (Human), UniProt P29597). Nature of the test: Tyk2 enzyme assay (Assay Example^b 1). The note with it: ATP 100 μM.
Test [4] has as its target T2, JAK3. Nature of the test: Enzyme assay (Assay Example^a 1), JAK3. The class given is biochemical. The note with it: ATP 100 μM.
Test [5] addresses T3, Tyk2. Nature of the test: Enzyme assay (Assay Example^a 1), Tyk2. The class given is biochemical. The conditions noted are these: ATP 100 μM.
The target of test [6] is T1, JAK1. Description: Enzyme assay (Assay Example^a 1), JAK1. The class given is biochemical. The conditions noted are these: ATP 100 μM.
The next test has as its target JAK2 (Homo sapiens (Human), UniProt O60674). Description: Enzyme assay (Assay Example^a 1), JAK2. Format: biochemical. The conditions noted are these: ATP 100 μM.
Setting [7] is: IC50 (μM) JAK1, Table^b 78, ATP 100 μM.
Setting [8] is: IC50 (μM) JAK3, Table^b 78, ATP 100 μM.
The mark [9] stands for this setting: IC50 (μM) JAK1, Table^b 80, ATP 100 μM.
[10] abbreviates: IC50 (μM) JAK3, Table^b 80, ATP 100 μM.

T2 sequence (P52333 whole entry): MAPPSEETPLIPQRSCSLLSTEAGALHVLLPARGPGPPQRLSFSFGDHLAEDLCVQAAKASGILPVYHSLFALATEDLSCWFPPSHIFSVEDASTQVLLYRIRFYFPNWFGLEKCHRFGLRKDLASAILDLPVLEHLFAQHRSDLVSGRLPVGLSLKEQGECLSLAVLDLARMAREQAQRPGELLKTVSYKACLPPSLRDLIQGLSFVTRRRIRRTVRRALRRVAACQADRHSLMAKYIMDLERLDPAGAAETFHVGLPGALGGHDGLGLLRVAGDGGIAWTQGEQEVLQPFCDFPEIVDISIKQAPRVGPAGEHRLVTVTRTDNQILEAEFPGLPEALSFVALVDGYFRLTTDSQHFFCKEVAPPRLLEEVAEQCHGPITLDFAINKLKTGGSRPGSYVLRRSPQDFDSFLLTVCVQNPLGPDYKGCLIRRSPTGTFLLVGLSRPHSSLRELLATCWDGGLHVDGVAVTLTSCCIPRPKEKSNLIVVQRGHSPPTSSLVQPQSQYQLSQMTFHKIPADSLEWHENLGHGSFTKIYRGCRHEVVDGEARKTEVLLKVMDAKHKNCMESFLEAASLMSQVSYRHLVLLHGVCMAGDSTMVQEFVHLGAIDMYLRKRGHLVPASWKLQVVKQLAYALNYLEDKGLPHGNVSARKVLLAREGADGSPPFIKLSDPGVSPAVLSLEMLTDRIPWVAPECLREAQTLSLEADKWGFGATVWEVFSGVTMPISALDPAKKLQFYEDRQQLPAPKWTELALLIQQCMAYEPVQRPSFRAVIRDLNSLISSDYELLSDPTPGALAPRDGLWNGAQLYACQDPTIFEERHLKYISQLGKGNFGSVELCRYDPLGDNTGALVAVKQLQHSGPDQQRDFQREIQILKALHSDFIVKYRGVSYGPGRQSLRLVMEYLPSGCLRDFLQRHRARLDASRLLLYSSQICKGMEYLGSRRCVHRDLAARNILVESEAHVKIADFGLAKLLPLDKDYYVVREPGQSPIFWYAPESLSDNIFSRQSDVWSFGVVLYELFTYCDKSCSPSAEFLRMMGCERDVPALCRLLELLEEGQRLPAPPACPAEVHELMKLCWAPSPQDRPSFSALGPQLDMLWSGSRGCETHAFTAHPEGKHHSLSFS
T3 sequence (P29597 whole entry): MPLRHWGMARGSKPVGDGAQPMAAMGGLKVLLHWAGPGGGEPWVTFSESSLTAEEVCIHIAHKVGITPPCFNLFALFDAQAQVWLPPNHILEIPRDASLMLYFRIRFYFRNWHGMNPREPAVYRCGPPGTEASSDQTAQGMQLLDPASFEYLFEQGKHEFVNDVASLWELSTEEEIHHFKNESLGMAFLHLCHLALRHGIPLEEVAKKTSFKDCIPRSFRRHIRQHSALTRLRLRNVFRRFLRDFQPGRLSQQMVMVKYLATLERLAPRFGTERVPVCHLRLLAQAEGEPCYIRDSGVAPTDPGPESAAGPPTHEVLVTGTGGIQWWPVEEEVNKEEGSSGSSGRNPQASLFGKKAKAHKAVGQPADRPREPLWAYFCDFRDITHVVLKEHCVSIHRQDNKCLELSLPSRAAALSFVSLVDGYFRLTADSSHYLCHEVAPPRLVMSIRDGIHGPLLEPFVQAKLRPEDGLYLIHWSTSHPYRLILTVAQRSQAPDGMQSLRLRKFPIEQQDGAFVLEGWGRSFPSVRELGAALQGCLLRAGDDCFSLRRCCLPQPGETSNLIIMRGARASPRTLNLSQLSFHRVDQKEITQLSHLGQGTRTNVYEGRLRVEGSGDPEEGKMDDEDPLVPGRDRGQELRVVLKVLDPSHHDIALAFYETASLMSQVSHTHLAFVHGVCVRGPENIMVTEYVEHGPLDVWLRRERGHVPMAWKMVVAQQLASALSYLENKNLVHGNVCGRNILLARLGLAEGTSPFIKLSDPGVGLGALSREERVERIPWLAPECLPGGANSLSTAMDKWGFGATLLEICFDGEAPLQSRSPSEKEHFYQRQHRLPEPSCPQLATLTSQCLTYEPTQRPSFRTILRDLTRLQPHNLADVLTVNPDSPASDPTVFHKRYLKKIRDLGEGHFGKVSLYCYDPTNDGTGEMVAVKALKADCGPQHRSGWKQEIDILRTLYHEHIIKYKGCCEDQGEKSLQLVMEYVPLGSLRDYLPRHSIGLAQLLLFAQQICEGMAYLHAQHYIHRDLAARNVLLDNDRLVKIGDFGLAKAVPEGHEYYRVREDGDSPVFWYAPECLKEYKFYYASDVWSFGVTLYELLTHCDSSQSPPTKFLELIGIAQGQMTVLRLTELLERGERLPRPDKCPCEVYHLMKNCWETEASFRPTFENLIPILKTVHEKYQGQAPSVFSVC

Broadly, the IC50 is the point on the concentration scale where inhibition reaches its midpoint. Read a low IC50 as inhibition by little substance. Consider `C[C@@H]1CCN(C(=O)CC#N)C[C@@H]1N1COCc2cnc3[nH]ccc3c21` (racemic) [compound 16], for which the IC50 on JAK1 [1] (setting [7]) is 0.038 µM; against JAK3 [2] (setting [8]), 0.11 µM.
On JAK1 [1] (setting [9]), `Cc1cn([C@H]2CN(Cc3ccccc3)CC[C@H]2C)c2c(cnc3[nH]ccc32)c1=O` (racemic) [compound 23] came in with an IC50 of 0.035 µM.
As for `C[C@@H]1CCN(S(=O)(=O)c2ccccc2C#N)C[C@@H]1n1ccc(=O)c2cnc3[nH]ccc3c21` (racemic) [compound 25], inhibition on JAK3 [2] (setting [10]) was half-maximal at 0.07 µM (IC50).
On JAK3 [2] (setting [10]), `C[C@@H]1CCN(C(=O)c2ccccc2C(F)(F)F)C[C@@H]1n1ccc(=O)c2cnc3[nH]ccc3c21` (racemic) [compound 30] gave a concentration for half-maximal inhibition (IC50) above 1 µM.
Molecule `C[C@@H]1CCN(C(=O)c2cccc(C(F)(F)F)c2)C[C@@H]1n1ccc(=O)c2cnc3[nH]ccc3c21` (racemic) [compound 31] displayed an IC50 on JAK3 [2] (setting [10]) above 1 µM.
On the same count and under the same terms, the figure for `C[C@@H]1CCN(C(=O)OCc2ccccc2)C[C@@H]1n1ccc(=O)c2cnc3[nH]ccc3c21` (racemic) [compound 35] is 0.11 µM; for `C[C@@H]1CCN(Cc2cccc(C(F)(F)F)c2)C[C@@H]1n1ccc(=O)c2cnc3[nH]ccc3c21` (racemic) [compound 39] it is 0.18 µM.
Turning to `C[C@@H]1CCN(C2CCCC2)C[C@@H]1n1ccc(=O)c2cnc3[nH]ccc3c21` (racemic) [compound 47], at Tyk2 [3] (IC50 (μM) TYK2, Table^b 80), the IC50 is above 1 µM.
Turning to `CCC(C)CN1CCC(n2c(=O)[nH]c(=O)c3cnc4[nH]ccc4c32)CC1` (racemic) [compound 92], the IC50 on JAK3 [2] (IC50 (μM) JAK3, ATP 100 μM) is above 1 µM.
In turn, `CC(C#N)n1c(=O)c2cnc3[nH]ccc3c2n(C2CCCCC2)c1=O` (racemic) [compound 146] returned an IC50 against JAK3 [2] (IC50 (μM) JAK3, ATP 100 μM) above 1 µM.
`N#CCC(=O)N(CC(F)(F)F)C[C@H]1CC[C@H](n2c(=O)[nH]c(=O)c3cnc4[nH]ccc4c32)CC1` [Synthetic Example^b 135, 2-Cyano-N-{[trans-4-(2,4-dioxo-2,3,4,7-tetrahydro-1H-pyrrolo[3′,2′:5,6]pyrido[4,3-d]pyrimidin-1-yl)cyclohexyl]methyl}-N-(2,2,2-trifluoroethyl)acetamide] showed an IC50 at JAK3 [2] (IC50 (μM) JAK3, ATP 100 μM) of 0.5 µM.
On to `CN(CC(F)(F)F)C[C@H]1CC[C@H](n2c(=O)[nH]c(=O)c3cnc4[nH]ccc4c32)CC1` [Synthetic Example^b 136, 1-(trans-4-{[Methyl(2,2,2-trifluoroethyl)amino]methyl}cyclohexyl)-1H-pyrrolo[3′,2′:5,6]pyrido[4,3-d]pyrimidine-2,4(3H,7H)-dione], for which the IC50 on JAK1 [1] (IC50 (μM) JAK1, ATP 100 μM) stood at 0.0032 µM; against JAK3 [2] (IC50 (μM) JAK3, ATP 100 μM), 0.75 µM.
Take `O=c1ccn(C2CCCCC2)c2c1cnc1[nH]ccc12` [compound 3]: the IC50 on JAK1 [1] (setting [7]) came to 0.017 µM; against JAK3 [2] (setting [8]) it was 0.22 µM.
For `O=S1(=O)C=CN(C2CCCCC2)c2c1cnc1[nH]ccc21` [compound 12], the IC50 was 0.13 µM on JAK1 [1] (setting [7]) and above 1 µM on Tyk2 [3] (IC50 (μM) TYK2, Table^b 79).
`O=c1ncc2cnc3[nH]ccc3c2n1C1CCCCC1` [compound 18] displayed a half-inhibitory concentration (IC50) against Tyk2 [3] (IC50 (μM) TYK2, Table^b 79) of 0.25 µM.
Regarding `O=c1ccn(C2CCCCC2)c2c1cnc1[nH]cnc12` [compound 20], the IC50 against JAK1 [1] (setting [7]) is 0.28 µM; at Tyk2 [3] (IC50 (μM) TYK2, Table^b 79), 0.76 µM.
In the case of `O=c1[nH]c(=O)n(C2CCN(Cc3ccc(C(F)(F)F)cc3)CC2)c2c1cnc1[nH]ccc12` [compound 52], the IC50 on JAK3 [2] (setting [10]) is above 1 µM.
Consider `O=c1ccn(C2CCN(Cc3ccccc3)CC2)c2c1cnc1[nH]ccc12` [compound 54], for which the IC50 on JAK3 [2] (setting [10]) amounted to 0.47 µM.
Turning to `O=C1NCc2cnc3[nH]ccc3c2N1C1CCN(Cc2ccccc2)CC1` [compound 59], the half-maximal inhibitory concentration (IC50) at Tyk2 [3] (IC50 (μM) TYK2, Table^b 80) is 4.3 µM; against JAK3 [2] (setting [10]), 2.1 µM.
Consider `O=C1NCc2cnc3[nH]ccc3c2N1C1CCN(Cc2cccnc2)CC1` [compound 61], for which the IC50 at Tyk2 [3] (IC50 (μM) TYK2, Table^b 80) is 3.6 µM.
On to `N#Cc1ccc(CN2CCC(N3C(=O)NCc4cnc5[nH]ccc5c43)CC2)cc1` [compound 62], for which the IC50 on Tyk2 [3] (IC50 (μM) TYK2, Table^b 80) was above 1 µM; against JAK3 [2] (setting [10]) it was above 1 µM.
At JAK1 [1] (setting [9]), `O=C1NCc2cnc3[nH]ccc3c2N1C1CCN(Cc2ccc(C(F)(F)F)cc2)CC1` [compound 63] displayed an IC50 of 0.12 µM.
Regarding `O=C(CC(F)(F)F)N1CCC(N2C(=O)NCc3cnc4[nH]ccc4c32)CC1` [compound 65], the IC50 stood at 2.9 µM against Tyk2 [3] (IC50 (μM) TYK2, Table^b 80) and 9.5 µM at JAK3 [2] (setting [10]).
`CO[C@H]1CC[C@H](n2ccc(=O)c3cnc4[nH]ccc4c32)CC1` [compound 70] gave an IC50 at JAK3 [2] (setting [10]) above 1 µM.
The molecule `O=c1ccn(C2CCN(Cc3ccc(C(F)(F)F)o3)CC2)c2c1cnc1[nH]ccc12` [compound 71] displayed an IC50 on JAK3 [2] (setting [10]) of 0.46 µM.
On the same count and under the same terms, next, `O=c1ccn(C2CCN(Cc3ccc([N+](=O)[O-])o3)CC2)c2c1cnc1[nH]ccc12` [compound 72]: above 1 µM.
On JAK3 [2] (setting [10]), `O=c1ccn(C2CCN(Cc3ccc(Cl)c(Cl)c3)CC2)c2c1cnc1[nH]ccc12` [compound 75] yielded an IC50 above 1 µM.
As to `O=c1ccn(C2CCN(Cc3ccc(Br)s3)CC2)c2c1cnc1[nH]ccc12` [compound 81], the IC50 on JAK3 [2] (setting [10]) was determined as 0.031 µM.
At JAK3 [2] (setting [10]), `O=c1ccn(C2CCN(Cc3cnc(Br)s3)CC2)c2c1cnc1[nH]ccc12` [compound 83] gave a half-inhibitory concentration (IC50) of 0.62 µM.
In turn, `O=c1ccn(C2CCN(Cc3ccc4[nH]ccc4c3)CC2)c2c1cnc1[nH]ccc12` [compound 85] showed an IC50 against JAK3 [2] (setting [10]) above 1 µM.
In turn, `Cc1nc(CN2CCC(n3ccc(=O)c4cnc5[nH]ccc5c43)CC2)cs1` [compound 86] yielded an IC50 at JAK1 [1] (setting [9]) of 0.043 µM.
`O=c1[nH]c(=O)n(C2CCN(CC3CC3)CC2)c2c1cnc1[nH]ccc12` [compound 91] registered a concentration for half-maximal inhibition (IC50) against JAK3 [2] (IC50 (μM) JAK3, ATP 100 μM) above 1 µM.
For the molecule `O=c1[nH]c(=O)n(C2CCN(CCC3CCOCC3)CC2)c2c1cnc1[nH]ccc12` [compound 93], the IC50 against JAK3 [2] (IC50 (μM) JAK3, ATP 100 μM) is above 1 µM.
The same measure, in the same setting: next, `N#CC=CC1CCC(n2c(=O)[nH]c(=O)c3cnc4[nH]ccc4c32)CC1` (stereo not drawn) [compound 103]: above 1 µM.
At JAK1 [1] (IC50 (μM) JAK1, ATP 100 μM), `O=c1[nH]c(=O)n([C@H]2CC[C@H](CN3CC[C@@H](O)C3)CC2)c2c1cnc1[nH]ccc12` [compound 112] had an IC50 of 0.0026 µM.
With `O=c1[nH]c(=O)n(C2CCC(CNCC3CC3)CC2)c2c1cnc1[nH]ccc12` (stereo not drawn) [compound 117], the half-maximal inhibitory concentration (IC50) against JAK1 [1] (IC50 (μM) JAK1, ATP 100 μM) is 0.03 µM; at JAK3 [2] (IC50 (μM) JAK3, ATP 100 μM), above 1 µM.
In turn, `O=c1[nH]c(=O)n(C2CCC(CN(CCO)Cc3ccccc3)CC2)c2c1cnc1[nH]ccc12` (stereo not drawn) [compound 121] gave an IC50 at JAK3 [2] (IC50 (μM) JAK3, ATP 100 μM) above 1 µM.
In the case of `N#CCC1CN(C[C@H]2CC[C@H](n3c(=O)[nH]c(=O)c4cnc5[nH]ccc5c43)CC2)C1` [compound 124], the IC50 against JAK3 [2] (IC50 (μM) JAK3, ATP 100 μM) is above 1 µM.
The same measure, in the same setting: next, `O=c1[nH]c(=O)n([C@H]2CC[C@H](CNCC3(O)CCCCC3)CC2)c2c1cnc1[nH]ccc12` [compound 126]: above 1 µM; `O=c1c2cnc3[nH]ccc3c2n(C2CCCCC2)c(=O)n1CCN1CCOCC1` [compound 142]: above 1 µM; `CC(CO)(CO)Cn1c(=O)c2cnc3[nH]ccc3c2n(C2CCCCC2)c1=O` [compound 151]: above 1 µM.
For the molecule `CN(C)C(=O)Cn1c(=O)c2cnc3[nH]ccc3c2n(C2CCCCC2)c1=O` [compound 152], at JAK3 [2] (IC50 (μM) JAK3, ATP 100 μM), the 50% inhibitory concentration (IC50) worked out at 0.48 µM.
`CN(C)CCn1c(=O)c2cnc3[nH]ccc3c2n(C2CCCCC2)c1=O` [compound 153] showed an IC50 against JAK3 [2] (IC50 (μM) JAK3, ATP 100 μM) above 1 µM.
`O=c1c2cnc3[nH]ccc3c2n(C2CCCCC2)c(=O)n1C1CCNCC1` [compound 154] yielded an IC50 against JAK3 [2] (IC50 (μM) JAK3, ATP 100 μM) above 1 µM.
For the molecule `OC12CC3CC(C1)CC(c1nnn4cnc5[nH]ccc5c14)(C3)C2` [compound 445, 3-(7H-Pyrrolo[3,2-e][1,2,3]triazolo[1,5-c]pyrimidin-1-yl)adamantan-1-ol], the IC50 is 0.22 µM against JAK3 [4], 0.052 µM against Tyk2 [5], 0.031 µM against JAK1 [6] and 0.13 µM against JAK2.
